Like-named read-outs stand apart in the source and are kept apart here.
What was measured:
[1] = test system: 3D7 P. falciparum parasites; assay: Growth inhibition assay (72 h, LDH activity); assay type: cell-based, Plasmodium falciparum; details: for inhibition at 0.078125 µM / inhibition at 0.15625 µM / inhibition at 0.3125 µM / inhibition at 0.625 µM / inhibition at 1.25 µM / inhibition at 2.5 µM / inhibition at 5 µM / inhibition at 10 µM / EC50 / inhibition at 0.0390625 µM: Plasmodium falciparum; for inhibition at 10 µM: read-out: % Inhibition; for inhibition at 0.0390625 µM: 3D7, M-833 0.0390625 uM
Procedure: (§1) Parasite growth assays with inhibitory compounds were performed as per[11] and are fully described in the Supplementary Information. […]
(§2) Growth inhibition assays. Synchronised ring-stage parasites (0.3-0.6% parasitemia, 2% haematocrit) were grown for 72 h in a serial-dilution of the compound under […]
(§3) and compound 4. Note that M-833 was first purchased from MolPort (MolPort -002-267-916) then made in-house at WEHI: the differences observed in EC50s across experiments are attributed to the different batches of M -833. For some experiments, 0, 0.25 or 2.5 mM of glucosamine (GlcN) was also added. Experiments were set up in technical duplicates or triplicates. Following a freeze -thaw cycle, lactate dehydrogenase (LDH) activity was assessed as an indicator of parasite growt h 5. 30 μL of parasite culture was incubated for 30 min in the dark with 75 μL Malstat mixture (0.1 M Tris pH 9.0, 20 g/L lactic acid, pH 7.5, 0.2% Triton-X100, 0.5 g/L acetylpyridine adenine dinucleotide (APAD, Sigma), 200 μg/mL nitroblue tetrazolium (NBT; Sigma), 1 μg/mL phenozine ethosulfate (PES; Sigma)). Absorbance was then measured at 650 nm, transformed using the formula below, plotted against the logarithm of the concentrations, and a non-linear regression (log(inhibitor) vs. response, variable slope) was calculated using GraphPad Prism to assess the half-inhibitory […]
(§4) Growth inhibition % = (1 − average(sample)− average(uRBC)) ∗ 100 […]
(§5) The DMSO samples were also used to assess growth of parasite in the presence of 0.25 and 2.5 mM GlcN (normalised by DMSO in 0 mM GlcN). […]

[2] = test system: PopE-F10 M-833 resistant clone (PfSTART1 N330K); assay: Growth inhibition assay (72 h, LDH activity); assay type: cell-based, Plasmodium falciparum; details: for inhibition at 0.0390625 µM / inhibition at 0.078125 µM: read-out: % Inhibition
Procedure: The drug was then removed, and parasites were allowed to recover. Another cycle of drug treatment (3 μM M-833) was then resumed. The resistant lines were cloned out by limiting dilution (diluting the culture into a 96-well plate to achieve an average of ~0.3 parasites per well), prior to growth inhibition assays and genomic DNA (gDNA) extraction (DNeasy Blood and Tissue kit (Qiagen)[18].
as §1, §2, §3, §4, §5

For `Cc1cc(Cl)c(S(=O)(=O)N2CCCC2)cc1OCC(=O)NC1CCCCC1` [M-833], the inhibition at 0.078125 µM ([1]; 3D7, 3D7 replicate 1, M-833 0.078125 uM) was 21.8%, the inhibition at 0.15625 µM ([1]; 3D7, 3D7 replicate 1, M-833 0.15625 uM) was 47% and the inhibition at 0.3125 µM ([1]; 3D7, 3D7 replicate 1, M-833 0.3125 uM) was 68.2%. The inhibition at 0.625 µM ([1]; 3D7, 3D7 replicate 1, M-833 0.625 uM) was 84.4%, the inhibition at 1.25 µM ([1]; 3D7, 3D7 replicate 1, M-833 1.25 uM) was 93.1% and the inhibition at 2.5 µM ([1]; 3D7, 3D7 replicate 1, M-833 2.5 uM) was 95.8%. It also gave an inhibition at 5 µM ([1]; 3D7, 3D7 replicate 1, M-833 5 uM) of 95.5%, an inhibition at 10 µM ([1]; 3D7, 3D7 replicate 1, M-833 10 uM) of 97.3% and an EC50 ([1]; 3D7, 72 h, Fig 2B, 3D7, 72 h, n = 3, unit only in x-axis title, read-out: EC50 (95% confidence interval)) of 97.6 nM. It also gave an EC50 ([1]; 3D7, 72 h, Fig 2D, 3D7, 72 h, n = 3, read-out: EC50 (95% confidence interval)) of 49.7 nM, an EC50 ([1]; 3D7, 72 h, Supplementary Table 1, 3D7, 72 h, read-out: EC50) of 156 nM and an EC50 ([1]; 3D7, Fig 1B, 3D7, 10 µM to 0.04 µM M-833, n = 3, unit only on x-axis label, read-out: EC50 (95% confidence interval)) of 170 nM. The EC50 ([1]; 3D7, Fig 3C, 3D7, 0 mM GlcN, n = 4, unit on plot axis, read-out: EC50 M-833 (95% confidence interval)) was 157 nM, the EC50 ([1]; 3D7, Fig 3C, 3D7, 0.25 mM GlcN, n = 4, unit on plot axis, read-out: EC50 M-833 (95% confidence interval)) was 158 nM and the EC50 ([1]; 3D7, Fig 3C, 3D7, 2.5 mM GlcN, n = 4, unit on plot axis, read-out: EC50 M-833 (95% confidence interval)) was 118 nM. It also gave an EC50 ([1]; 3D7, Fig 3F, 3D7, 0.25 mM GlcN, n = 3, read-out: EC50 M-833 (95% confidence interval)) of 54.8 nM, an EC50 ([1]; 3D7, Fig 3F, 3D7, 2.5 mM GlcN, n = 3, read-out: EC50 M-833 (95% confidence interval)) of 37.3 nM and an EC50 ([1]; 3D7, Fig 4A, 3D7 parasites, read-out: Pf 3D7 EC50 (SD)) of 1100 nM. The inhibition at 0.0390625 µM ([1]; 3D7 replicate 1) was 1.91%, the inhibition at 0.0390625 µM ([1]; 3D7 replicate 3) was -5.13% and the inhibition at 0.078125 µM ([1]; 3D7, M-833 0.078125 uM, 3D7 replicate 1) was 30.8%. The inhibition at 0.078125 µM ([1]; 3D7, M-833 0.078125 uM, 3D7 replicate 3) was -1.15%, the inhibition at 0.15625 µM ([1]; 3D7, M-833 0.15625 uM, 3D7 replicate 1) was 57.1% and the inhibition at 0.15625 µM ([1]; 3D7, M-833 0.15625 uM, 3D7 replicate 3) was 12.4%. The inhibition at 0.3125 µM ([1]; 3D7, M-833 0.3125 uM, 3D7 replicate 1) was 82.6%, the inhibition at 0.3125 µM ([1]; 3D7, M-833 0.3125 uM, 3D7 replicate 3) was 44.5% and the inhibition at 0.625 µM ([1]; 3D7, M-833 0.625 uM, 3D7 replicate 1) was 87.3%. The inhibition at 0.625 µM ([1]; 3D7, M-833 0.625 uM, 3D7 replicate 3) was 64.5%, the inhibition at 1.25 µM ([1]; 3D7, M-833 1.25 uM, 3D7 replicate 1) was 91% and the inhibition at 1.25 µM ([1]; 3D7, M-833 1.25 uM, 3D7 replicate 3) was 73.5%. For the same compound, the inhibition at 2.5 µM ([1]; 3D7, M-833 2.5 uM, 3D7 replicate 1) was 91.8%, the inhibition at 2.5 µM ([1]; 3D7, M-833 2.5 uM, 3D7 replicate 3) was 77.3% and the inhibition at 5 µM ([1]; 3D7, M-833 5 uM, 3D7 replicate 1) was 91.3%. It also gave an inhibition at 5 µM ([1]; 3D7, M-833 5 uM, 3D7 replicate 3) of 83.4%, an inhibition at 10 µM ([1]; 3D7, M-833 10 uM, 3D7 replicate 1) of 91.1% and an inhibition at 10 µM ([1]; 3D7, M-833 10 uM, 3D7 replicate 3) of 78%. For the same compound, the “effect of GlcN addition on EC50” value ([1]; control 3D7) was “did not change the EC50”, the “Normalised to DMSO” value ([2]; M-833 0.0390625 uM, Pop E-F10 replicate 1) was 109.097 and the “Normalised to DMSO” value ([2]; M-833 0.0390625 uM, Pop E-F10 replicate 3) was 103.799. For the same compound, the “Normalised to DMSO” value ([2]; M-833 0.078125 uM, Pop E-F10 replicate 1) was 108.039, the “Normalised to DMSO” value ([2]; M-833 0.078125 uM, Pop E-F10 replicate 3) was 104.854 and the “Normalised to DMSO” value ([2]; M-833 0.15625 uM, Pop E-F10 replicate 1) was 116.502. The “Normalised to DMSO” value ([2]; M-833 0.15625 uM, Pop E-F10 replicate 3) was 108.125, the “Normalised to DMSO” value ([2]; M-833 0.3125 uM, Pop E-F10 replicate 1) was 113.047 and the “Normalised to DMSO” value ([2]; M-833 0.3125 uM, Pop E-F10 replicate 3) was 113.296. The “Normalised to DMSO” value ([2]; M-833 0.625 uM, Pop E-F10 replicate 1) was 116.996, the “Normalised to DMSO” value ([2]; M-833 0.625 uM, Pop E-F10 replicate 3) was 104.749 and the “Normalised to DMSO” value ([2]; M-833 1.25 uM, Pop E-F10 replicate 1) was 105.924. The “Normalised to DMSO” value ([2]; M-833 1.25 uM, Pop E-F10 replicate 3) was 104.326, the “Normalised to DMSO” value ([2]; M-833 2.5 uM, Pop E-F10 replicate 1) was 101.551 and the “Normalised to DMSO” value ([2]; M-833 2.5 uM, Pop E-F10 replicate 3) was 105.276. For the same compound, the “Normalised to DMSO” value ([2]; M-833 5 uM, Pop E-F10 replicate 1) was 94.8519, the “Normalised to DMSO” value ([2]; M-833 5 uM, Pop E-F10 replicate 3) was 96.4122 and the “Normalised to DMSO” value ([2]; M-833 10 uM, Pop E-F10 replicate 1) was 72.2144. For the same compound, the “Normalised to DMSO” value ([2]; M-833 10 uM, Pop E-F10 replicate 3) was 80.0563, the EC50 ([2]; Plasmodium falciparum, 72 h, Supplementary Table 1, PopE-F10 (N330K)) was > 20 µM and the inhibition at 0.0390625 µM ([2]; Plasmodium falciparum, M-833 0.0390625 uM, Pop E-F10 replicate 1) was -9.1%. The inhibition at 0.0390625 µM ([2]; Plasmodium falciparum, M-833 0.0390625 uM, Pop E-F10 replicate 3) was -3.8%, the inhibition at 0.078125 µM ([2]; Plasmodium falciparum, M-833 0.078125 uM, Pop E-F10 replicate 1) was -8.04% and the inhibition at 0.078125 µM ([2]; Plasmodium falciparum, M-833 0.078125 uM, Pop E-F10 replicate 3) was -4.85%.
